Laboratory results taken from patent US20010055590A1, “Method for enhancing myoblast migration and invasion in the context of gene therapy” (priority 1999, published 2001).

Tests used:
Format in all cases: cell-based
mouse myoblasts [1] = assay: Invasion of mouse myoblasts transiently over-expressing MMPs; details: NAC treatment, n=4
Protocol: (§1) Myoblast migration and invasion were examined using a commercially available in vitro cell migration and invasion assay kit (Biocoat, Becton Dickinson, Franklin Lakes, N.J.) as described by Albini et al. (A rapid in vitro assay for quantitating the invasive potential of tumor cells Cancer Res 47:3239-3245, 1987). Myoblasts were grown to approximately 70% confluence, rinsed three times in serum-free DMEM, followed by incubation for 3 hours in 0.2% bovine serum albumin (BSA) in DMEM to eliminate the effects of serum. Cells were then trypsinized and collected by centrifugation. Cells were resuspended in serum-free DMEM at a density of 1×10^5 cells/ml, and 0.5 ml aliquots of cell suspension were added to the top chamber. […] Fibronectin subfragments of 45 KDa (Sigma), 120 kDa (Gibco), 63 kDa (Retronectin, Takara) and 70 KDa (Sigma) were used alone or in combination. The growth factor concentrations used were those which could produce maximal effects as examined in the present studies by extending from values reported by Bischoff (“Chemotaxis of skeletal muscle satellite cells” Devel. Dynamics 208:505-515, 1997). […] The number of cells per field was counted in 10 randomly selected fields and averaged for each condition. […]

mouse myoblasts [2] = assay: Migration of mouse myoblasts transiently over-expressing MMPs; details: NAC treatment, n=4
Protocol: as §1

MMP-1 = assay: Gelatin zymography of mouse myoblast culture medium, MMP-1; details: mouse myoblasts
Protocol: Gelatin zymography for assaying MMPs was carried out as previously described (Guerin and Holland “Synthesis and secretion of matrix-degrading metalloproteinases by human skeletal muscle satellite cells” Devel. Dynamics 202:91-99,1995) with minor modifications. Briefly, myoblasts were grown in 6 cm tissue culture plates to approximately 70% confluence, then rinsed three times with serumfree DMEM and incubated for 3 hours in DMEM containing 0.2% BSA to eliminate the effects of serum. Growth factors were added and cells were incubated for 24 hours. Culture medium was then collected, centrifuged to pellet detached cells, and concentrated ten-to twenty-fold using the Centricon-10 (Amicon, Beverly, Mass.) system. The protein concentration of the supernatants was determined using the Bio-Rad protein microassay system with BSA used as the standard. Samples were stored at −70° C. until use. For gelatin zymography, aliquots (10 μg as the total protein per sample) were electrophoresed at constant voltage on a 10% polyacrylamide gel containing 2 mg/ml gelatin. […] Proteinase activity was quantified by densitometric scanning of bands using a Bio-Rad Gel Doc 1000 video camera imaging system (Bio Rad, Hercules, Calif.). […]

[3] = MMP-1 over-expressing myoblasts
[4] = MMP-2 over-expressing myoblasts

| Molecule | invasion relative to non-treated cells (mouse myoblasts [1]; [3]) [%] | invasion relative to non-treated cells (mouse myoblasts [1]; [4]) [%] | migration capability relative to non-NAC treated cells (mouse myoblasts [2]; [3]) [%] | migration capability relative to non-NAC treated cells (mouse myoblasts [2]; [4]) [%] | MMP-1 expression (57 kDa) (MMP-1) |
| --- | --- | --- | --- | --- | --- |
| CC(=O)N[C@@H](CS)C(=O)O [NAC, N-acetyl cysteine, reference compound] | 40 | 28 | 35 | 22 |  |
| human serum fibronectin |  |  |  |  | does not significantly affect |
